Patent publication US4485100A, “Elastase inhibitors, a process for their preparation and medicaments containing these inhibitors” (Bayer Aktiengesellschaft, priority 1982, dated 1984)

Tested on: Wistar rats
Experiment: Aerosil-induced inflammatory reaction, paw swelling
Format: in vivo, rat
Settings: treated 15 hours after noxa, 21 hour value
Experimental: The inflammatory reaction was induced by intraplantary injection of 0.1 ml of a 2% Aerosil suspension into a hind paw of Wistar rats weighing 130-160 g. The inhibitors according to the invention used for the treatment of the inflammatory reaction were dissolved in 0.9% sodium chloride solution in a concentration of 10-20 mg/ml. The experimental animals were treated by intraperitoneal, subcutaneous or intravenous injection of 0.5-1.0 ml of the solution of the inhibitors 15 hours after the inflammatory noxa had been set. The swelling of the inflamed paw, which is a measure of the severity of the inflammatory reaction, was followed with respect to time using a Kemper antiphlogmeter. The 21 hour value after the induction of inflammation (=6 hours after injection of the inhibitors according to the invention) was determined to ascertain the dose/effect relationship.

Substance: basic pancreatic trypsin inhibitor [BPTI]
- Inhibition of the inflammatory reaction, swelling of inflamed paw: does not inhibit the inflammatory reaction
